Source: ChEMBL document CHEMBL6115031, “Structure-Based Optimization of Moracin M as Potent and Selective PDE4 Inhibitors with Antipsoriasis Effects” (J Med Chem, 2025)
The source made the active and inactive calls.

Columns and labels:
[1] = biological target: 3',5'-cyclic-AMP phosphodiesterase 4C (Homo sapiens, UniProt Q08493); test: Inhibition of PDE4C1 (314 to 639 residues) (unknown origin) extracted from Escherichia coli BL21 cells using 3H-cAMP/3H-cGMP as substrate preincubated with compound for 15 mins followed by substrate addition by liquid scintillation counter
3',5'-cyclic-AMP phosphodiesterase 4C, sequence (Q08493 whole entry, the tested form may be a part): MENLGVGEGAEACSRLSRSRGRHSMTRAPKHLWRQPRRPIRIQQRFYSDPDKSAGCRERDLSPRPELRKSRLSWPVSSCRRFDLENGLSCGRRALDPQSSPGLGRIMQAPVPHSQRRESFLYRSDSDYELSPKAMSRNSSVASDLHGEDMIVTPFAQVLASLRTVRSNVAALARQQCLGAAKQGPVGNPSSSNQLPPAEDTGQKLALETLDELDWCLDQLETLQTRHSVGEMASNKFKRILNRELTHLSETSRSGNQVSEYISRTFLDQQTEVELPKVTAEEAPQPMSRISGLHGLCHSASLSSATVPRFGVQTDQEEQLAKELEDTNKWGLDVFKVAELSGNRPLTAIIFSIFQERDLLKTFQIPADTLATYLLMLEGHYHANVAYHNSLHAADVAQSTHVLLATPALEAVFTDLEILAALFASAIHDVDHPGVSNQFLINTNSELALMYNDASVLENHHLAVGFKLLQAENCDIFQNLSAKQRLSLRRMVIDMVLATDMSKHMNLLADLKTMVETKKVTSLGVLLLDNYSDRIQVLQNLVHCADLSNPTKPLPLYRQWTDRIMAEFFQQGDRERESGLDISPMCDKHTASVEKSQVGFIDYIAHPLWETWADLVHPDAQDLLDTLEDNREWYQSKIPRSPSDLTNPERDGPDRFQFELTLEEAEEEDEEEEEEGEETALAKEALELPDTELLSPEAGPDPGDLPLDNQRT

[2] = biological target: High affinity 3',5'-cyclic-AMP phosphodiesterase 7A (Homo sapiens, UniProt Q13946); test: Inhibition of PDE7A1 (130 to 482 residues) (unknown origin) extracted from Escherichia coli BL21 cells using 3H-cAMP/3H-cGMP as substrate preincubated with compound for 15 mins followed by substrate addition by liquid scintillation counter
High affinity 3',5'-cyclic-AMP phosphodiesterase 7A, sequence (Q13946 whole entry, the tested form may be a part): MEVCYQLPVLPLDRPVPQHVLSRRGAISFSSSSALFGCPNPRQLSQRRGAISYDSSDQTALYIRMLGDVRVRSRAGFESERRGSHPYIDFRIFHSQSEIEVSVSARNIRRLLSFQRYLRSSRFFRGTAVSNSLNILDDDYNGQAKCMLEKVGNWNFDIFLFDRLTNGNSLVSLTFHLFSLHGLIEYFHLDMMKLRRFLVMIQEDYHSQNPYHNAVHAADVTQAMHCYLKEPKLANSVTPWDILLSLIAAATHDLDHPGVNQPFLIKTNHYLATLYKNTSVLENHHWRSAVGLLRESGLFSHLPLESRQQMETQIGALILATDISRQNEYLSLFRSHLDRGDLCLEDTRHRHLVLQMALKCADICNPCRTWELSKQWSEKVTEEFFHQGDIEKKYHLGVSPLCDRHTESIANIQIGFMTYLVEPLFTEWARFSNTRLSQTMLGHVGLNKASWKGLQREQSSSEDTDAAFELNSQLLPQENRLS

[3] = biological target: cAMP and cAMP-inhibited cGMP 3',5'-cyclic phosphodiesterase 10A (Homo sapiens, UniProt Q9Y233); test: Inhibition of PDE10A2 (449 to 770 residues) (unknown origin) extracted from Escherichia coli BL21 cells using 3H-cAMP/3H-cGMP as substrate preincubated with compound for 15 mins followed by substrate addition by liquid scintillation counter
cAMP and cAMP-inhibited cGMP 3',5'-cyclic phosphodiesterase 10A, sequence (Q9Y233 whole entry, the tested form may be a part): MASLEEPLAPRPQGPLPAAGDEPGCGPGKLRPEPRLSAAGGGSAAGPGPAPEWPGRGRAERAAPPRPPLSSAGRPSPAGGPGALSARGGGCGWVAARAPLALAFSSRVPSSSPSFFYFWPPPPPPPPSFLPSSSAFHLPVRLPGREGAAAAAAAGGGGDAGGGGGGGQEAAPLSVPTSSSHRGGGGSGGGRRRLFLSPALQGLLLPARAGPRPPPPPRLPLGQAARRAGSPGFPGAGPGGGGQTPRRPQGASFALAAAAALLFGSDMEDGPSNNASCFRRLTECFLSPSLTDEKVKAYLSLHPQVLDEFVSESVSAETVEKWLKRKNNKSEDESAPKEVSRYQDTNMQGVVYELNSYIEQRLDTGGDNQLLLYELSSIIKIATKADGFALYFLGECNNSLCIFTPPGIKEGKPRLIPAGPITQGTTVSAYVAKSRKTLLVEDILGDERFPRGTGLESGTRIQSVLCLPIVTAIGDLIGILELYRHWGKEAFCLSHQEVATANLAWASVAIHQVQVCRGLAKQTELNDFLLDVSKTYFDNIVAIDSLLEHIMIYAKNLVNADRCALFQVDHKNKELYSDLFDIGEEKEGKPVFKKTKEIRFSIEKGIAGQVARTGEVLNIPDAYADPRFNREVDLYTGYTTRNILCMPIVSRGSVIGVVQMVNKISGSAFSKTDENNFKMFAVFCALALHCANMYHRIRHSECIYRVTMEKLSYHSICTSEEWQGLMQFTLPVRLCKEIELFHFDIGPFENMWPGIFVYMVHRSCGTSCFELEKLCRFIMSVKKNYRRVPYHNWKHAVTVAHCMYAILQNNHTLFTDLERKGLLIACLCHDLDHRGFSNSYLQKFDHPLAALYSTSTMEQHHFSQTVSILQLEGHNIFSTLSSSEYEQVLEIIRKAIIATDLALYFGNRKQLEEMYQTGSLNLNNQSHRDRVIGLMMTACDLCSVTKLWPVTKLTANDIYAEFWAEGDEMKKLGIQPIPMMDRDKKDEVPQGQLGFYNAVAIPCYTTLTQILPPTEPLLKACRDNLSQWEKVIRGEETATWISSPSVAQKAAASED

RAW264.7 [4] = test: Cytotoxicity against mouse RAW264.7 cells assessed as reduction in cell viability at 5 to 80 uM incubated for 24 hrs by CCK-8 assay; format: toxicity, cell-based; conditions: raw264.7, 24 h, dose 5-80 µM
HaCaT [5] = test: Cytotoxicity against human HaCaT cells assessed as reduction in cell viability at 5 to 80 uM incubated for 24 hrs by CCK-8 assay; format: toxicity, cell-based; conditions: dose 5-80 µM
RAW264.7 [6] = test: Anti-inflammatory activity in LPS-stimulated mouse RAW264.7 cells assessed as reduction in IL-6 mRNA level pretreated with compound for 2 hrs followed by LPS stimulation and measured after 6 hrs by q-PCR analysis; format: functional, cell-based; conditions: dose 5-20 µM, time 8.0 hrs
HaCaT [7] = test: Anti-inflammatory activity in M5- stimulated human HaCaT cells assessed as reduction in TNF-alpha mRNA level incubated for 24 hrs by q-PCR analysis; format: functional, cell-based; conditions: dose 5-20 µM
HaCaT [8] = test: Anti-psoriasis effect in M5-stimulated human HaCaT cells assessed as decrease in K6 protein expression at 20 uM pretreated with M5 followed by compound addition and measured after 24 hrs by Western blotting analysis; format: functional, cell-based
HaCaT [9] = test: Anti-psoriasis effect in M5-stimulated human HaCaT cells assessed as upregulation of K1 protein expression at 20 uM pretreated with M5 followed by compound addition and measured after 24 hrs by Western blotting analysis; format: functional, cell-based
HaCaT [10] = test: Anti-psoriasis effect in M5-stimulated human HaCaT cells assessed as upregulation of K10 protein expression at 20 uM pretreated with M5 followed by compound addition and measured after 24 hrs by Western blotting analysis; format: functional, cell-based
[11] = Drug absorption in rat skin assessed as skin permeability by measuring cumulative transdermal amount per unit area administered topically as 0.3% ointment at 100 mg by HPLC analysis; format: ADME, tissue-based, Skin of body; conditions: in vivo, topical_or_ocular
[12] = Drug absorption in rat skin assessed as skin permeability by measuring steady-state transdermal flux administered topically as 0.3% ointment at 100 mg by HPLC analysis; format: ADME, tissue-based, Skin of body; conditions: in vivo, topical_or_ocular
Mus musculus [13] = test: Anti-psoriasis effect in IMQ-induced female BALB/c mouse assessed as reduction in psoriasis area at 20 mg/kg administered topically as 0.3 % ointment pretreated with IMQ for 6 hrs followed by compound addition once daily for 7 days; format: functional, organism-based; conditions: time 7.0 day
Mus musculus [14] = test: Anti-psoriasis effect in IMQ-induced female BALB/c mouse assessed as reduction in psoriasis severity index score at 20 mg/kg administered topically as 0.3 % ointment pretreated with IMQ for 6 hrs followed by compound addition once daily for 7 days; format: functional, organism-based; conditions: time 7.0 day
Mus musculus [15] = test: Anti-psoriasis effect in IMQ-induced female BALB/c mouse assessed as change in body weight at 20 mg/kg administered topically as 0.3 % ointment pretreated with IMQ for 6 hrs followed by compound addition once daily for 7 days; format: functional, organism-based; conditions: time 7.0 day
Mus musculus [16] = test: Anti-psoriasis effect in IMQ-induced female BALB/c mouse assessed as reduction in skin thickness at 20 mg/kg administered topically as 0.3 % ointment pretreated with IMQ for 6 hrs followed by compound addition once daily for 7 days; format: functional, organism-based; conditions: time 7.0 day
Mus musculus [17] = test: Anti-psoriasis effect in IMQ-induced female BALB/c mouse assessed as change in size of spleen at 20 mg/kg administered topically as 0.3 % ointment pretreated with IMQ for 6 hrs followed by compound addition once daily for 7 days by H and E staining based analysis; format: functional, organism-based; conditions: time 7.0 day
Mus musculus [18] = test: Anti-psoriasis effect in IMQ-induced female BALB/c mouse assessed as change in weight of spleen at 20 mg/kg administered topically as 0.3 % ointment pretreated with IMQ for 6 hrs followed by compound addition once daily for 7 days by H and E staining based analysis; format: functional, organism-based; conditions: time 7.0 day
Mus musculus [19] = test: Anti-inflammatory activity in IMQ-induced psoriasis in female BALB/c mouse assessed as reduction in IL-1beta mRNA level at 20 mg/kg administered topically as 0.3 % ointment pretreated with IMQ for 6 hrs followed by compound addition once daily for 7 days by q-PCR analysis; format: functional, organism-based; conditions: time 7.0 day
Mus musculus [20] = test: Anti-inflammatory activity in IMQ-induced psoriasis in female BALB/c mouse assessed as reduction in IL-6 mRNA level at 20 mg/kg administered topically as 0.3 % ointment pretreated with IMQ for 6 hrs followed by compound addition once daily for 7 days by q-PCR analysis; format: functional, organism-based; conditions: time 7.0 day
Mus musculus [21] = test: Anti-inflammatory activity in IMQ-induced psoriasis in female BALB/c mouse assessed as reduction in IL-17 mRNA level at 20 mg/kg administered topically as 0.3 % ointment pretreated with IMQ for 6 hrs followed by compound addition once daily for 7 days by q-PCR analysis; format: functional, organism-based; conditions: time 7.0 day
Mus musculus [22] = test: Anti-inflammatory activity in IMQ-induced psoriasis in female BALB/c mouse assessed as reduction in CXCL-2 mRNA level at 20 mg/kg administered topically as 0.3 % ointment pretreated with IMQ for 6 hrs followed by compound addition once daily for 7 days by q-PCR analysis; format: functional, organism-based; conditions: time 7.0 day
Mus musculus [23] = test: Anti-inflammatory activity in IMQ-induced psoriasis in female BALB/c mouse assessed as reduction in CCL-20 mRNA level at 20 mg/kg administered topically as 0.3 % ointment pretreated with IMQ for 6 hrs followed by compound addition once daily for 7 days by q-PCR analysis; format: functional, organism-based; conditions: time 7.0 day
Mus musculus [24] = test: Anti-psoriasis effect in IMQ-induced female BALB/c mouse model assessed as reduction in spinous layer thickness at 20 mg/kg administered topically as 0.3 % ointment pretreated with IMQ for 6 hrs followed by compound addition once daily for 7 days by H and E staining based analysis; format: functional, organism-based; conditions: time 7.0 day
Mus musculus [25] = test: Anti-psoriasis effect in female BALB/c mouse model assessed as reduction in K17 protein expression at 20 mg/kg administered topically as 0.3 % ointment pretreated with IMQ for 6 hrs followed by compound addition once daily for 7 days by Western blotting analysis; format: functional, organism-based; conditions: time 7.0 day
Mus musculus [26] = test: Anti-psoriasis effect in female BALB/c mouse model assessed as increase in K1 protein expression at 20 mg/kg administered topically as 0.3 % ointment pretreated with IMQ for 6 hrs followed by compound addition once daily for 7 days by Western blotting analysis; format: functional, organism-based; conditions: time 7.0 day
Mus musculus [27] = test: Anti-psoriasis effect in female BALB/c mouse model assessed as increase in K10 protein expression at 20 mg/kg administered topically as 0.3 % ointment pretreated with IMQ for 6 hrs followed by compound addition once daily for 7 days by Western blotting analysis; format: functional, organism-based; conditions: time 7.0 day

COC(=O)[C@H]1C[C@@H](Oc2c(O)ccc3cc(-c4ccc(OC(F)F)c(OCC5CC5)c4)oc23)CN1
5910 nM: IC50 [2]
747 nM: IC50 [1]
Non-toxic: Activity (RAW264.7 [4]) | Activity (HaCaT [5])
0.43 ug/cm2.hr: Jss [12]
active: Activity (RAW264.7 [6]) Dose-dependent-effect | Activity (HaCaT [7]) Dose-dependent-effect | Activity (HaCaT [8]) | Activity (HaCaT [9]) | Activity (HaCaT [10]) | Activity (Mus musculus [13]) | Activity (Mus musculus [14]) | Activity (Mus musculus [15]) | Activity (Mus musculus [16]) | Activity (Mus musculus [17]) | Activity (Mus musculus [18]) | Activity (Mus musculus [19]) | Activity (Mus musculus [20]) | Activity (Mus musculus [21]) | Activity (Mus musculus [22]) | Activity (Mus musculus [23]) | Activity (Mus musculus [24]) | Activity (Mus musculus [25]) | Activity (Mus musculus [26]) | Activity (Mus musculus [27])
1950 nM: IC50 [3]
15.78 microg/cm2: Drug absorption [11]
